Tests used:
[1] = target: Human immunodeficiency virus type 1 protease (Human immunodeficiency virus 1, UniProt Q72874); experiment: Inhibition of HIV-1 protease
[2] = tested on: Human immunodeficiency virus 1; experiment: Inhibitory concentration was evaluated to inhibit 95% of HIV-1 spread in MT4 cells

Row | IC50 [1] | SMILES | IC95 [2]
1 | > 3000 nM | CC(C)(C)NC(=O)[C@@H]1C[C@@H]2CCCC[C@@H]2CN1C[C@@H](O)[C@H](Cc1ccccc1)NC(=O)OC(C)(C)C | 
2 | 314 nM | CC(C)(C)NC(=O)[C@@H]1C[C@@H]2CCCC[C@@H]2CN1C[C@@H](O)[C@H](Cc1ccccc1)NC(=O)O[C@H]1C=CCOC1 | 
3 | < 0.03 nM | O=C(N[C@@H](Cc1ccccc1)[C@@H](O)C[C@@H](Cc1ccccc1)C(=O)N[C@H]1c2ccccc2C[C@H]1O)O[C@@H]1CCCOC1 | 25 nM
4 |  | CC(C)(C)OC(=O)N[C@@H](Cc1ccccc1)[C@@H](O)C[C@@H](Cc1ccccc1)C(=O)N[C@H]1c2ccccc2C[C@H]1O | 400 nM
5 | 308 nM | CC(C)(C)NC(=O)[C@@H]1C[C@@H]2CCCC[C@@H]2CN1C[C@@H](O)[C@H](Cc1ccccc1)NC(=O)O[C@@H]1CCCOC1 | 
6 | 392 nM | CC(C)(C)NC(=O)[C@@H]1C[C@@H]2CCCC[C@@H]2CN1C[C@@H](O)[C@H](Cc1ccccc1)NC(=O)O[C@H]1CCCOC1 | 
7 | 48.9 nM | CC(C)(C)NC(=O)[C@@H]1C[C@@H]2CCCC[C@@H]2CN1C[C@@H](O)[C@H](Cc1ccccc1)NC(=O)O[C@@H]1C=CCOC1 | 
8 | < 0.03 nM | O=C(N[C@@H](Cc1ccccc1)[C@@H](O)C[C@@H](Cc1ccccc1)C(=O)N[C@H]1c2ccccc2C[C@H]1O)O[C@H]1CCCOC1 | 50 nM
9 | < 0.03 nM | O=C(N[C@@H](Cc1ccccc1)[C@@H](O)C[C@@H](Cc1ccccc1)C(=O)N[C@H]1c2ccccc2C[C@H]1O)O[C@H]1CCOC1 | 3 nM

Row | SMILES | IC50 [1] | IC95 [2]
10 | O=C(N[C@@H](Cc1ccccc1)[C@@H](O)C[C@@H](Cc1ccccc1)C(=O)N[C@H]1c2ccccc2C[C@H]1O)O[C@@H]1CCOC1 | 0.03 nM | 100 nM
11 | O=C(N[C@@H](Cc1ccccc1)[C@@H](O)C[C@@H](Cc1ccccc1)C(=O)N[C@H]1c2ccccc2C[C@H]1O)OC1CCOCC1 | 1.22 nM | 
12 | O=C(N[C@@H](Cc1ccccc1)[C@@H](O)C[C@@H](Cc1ccccc1)C(=O)N[C@H]1c2ccccc2C[C@H]1O)OC1CCCC1 | 0.33 nM | 400 nM

Source: ChEMBL document CHEMBL1127030, “3-Tetrahydrofuran and pyran urethanes as high-affinity P2-ligands for HIV-1 protease inhibitors” (J Med Chem, 1993)
